Laboratory results published in US4956294A, “Culture of Streptoverticillium synroense for producing an antibacterial” (Merck & Co., Inc., priority 1989, dated 1990).
≈ marks a conversion by molar mass, not a printed value.

Experiments:
B. fragilis Pen^r 3214 = assay: Anaerobic agar dilution, Wilkens-Chalgren agar; type: cell-based; conditions: Bacteroides fragilis, 48 h
C. perfringens 3511 = assay: microbe, parasite or virus in culture; type: cell-based; conditions: Clostridium perfringens, 3511, 48 h
[1] = tested on: Clostridium perfringens NCCLS control strain 4418; assay: microbe, parasite or virus in culture; type: cell-based; conditions: 48 h
E. coli TEM 2+ 4351 = assay: Agar dilution, antagonist-free medium; conditions: Escherichia coli, 20 h
[2] = tested on: Erwinia atroseptica 1159 (4446); assay: Inhibition zone, agar plate; type: cell-based; conditions: Pectobacterium atrosepticum, 15λ, read-out: Inhibition Zone Diameter
Ent. cloacae P99- 2647 [3] = assay: Agar dilution, antagonist-free medium; conditions: Enterobacter cloacae, P992647, 20 h
[4] = tested on: B. distasonis Pen^r, Fox^r, Clind^r 4361; assay: Anaerobic agar dilution, Wilkens-Chalgren agar; type: cell-based; conditions: Parabacteroides distasonis, 48 h
[5] = tested on: Pseudomonas stutzeri 1231 (11607); assay: Inhibition zone, agar plate; type: cell-based; conditions: Stutzerimonas stutzeri, 15λ, read-out: Inhibition Zone Diameter
C. difficile Fox^r 4380 = assay: Anaerobic agar dilution, Wilkens-Chalgren agar; type: cell-based; conditions: Clostridioides difficile, 48 h
[6] = tested on: Streptococcus faecium 2820; assay: Inhibition zone, agar plate; type: cell-based; conditions: Enterococcus faecium, 15λ, read-out: Inhibition Zone Diameter
[7] = tested on: B. fragilis Clind^r, Fox^r, Tet^r 4360; assay: Anaerobic agar dilution, Wilkens-Chalgren agar; type: cell-based; conditions: Bacteroides fragilis, 48 h
Aerobacter aerogenes 835 = assay: Inhibition zone, agar plate; type: cell-based; conditions: Klebsiella aerogenes, 15λ, read-out: Inhibition Zone Diameter
[8] = tested on: Proteus vulgaris 838 (21100); assay: Inhibition zone, agar plate; type: cell-based; conditions: 15λ, read-out: Inhibition Zone Diameter
Aspergillus niger 442 = assay: Inhibition zone, agar plate; type: cell-based; conditions: 15λ, read-out: Inhibition Zone Diameter
Ent. cloacae P99- 2647 [9] = assay: Agar dilution, trypticase soy agar; conditions: Enterobacter cloacae, P992647, 20 h
[10] = tested on: Brucella bronchiseptica 965; assay: microbe, parasite or virus in culture; type: cell-based; conditions: Bordetella bronchiseptica, 965, read-out: Inhibition Zone Diameter
Ser. marcescens 2840 = assay: Agar dilution, trypticase soy agar; conditions: Serratia marcescens, 2840, 20 h
Candida albicans 992 = assay: Inhibition zone, agar plate; type: cell-based; conditions: 15λ, read-out: Inhibition Zone Diameter
Procedure: (§1) A crystalline sample of L-654,040 was dissolved in distilled water. Aliquots of 15λ were deposited on the surface of each seeded nutrient agar susceptibility test plate, followed by overnight incubation Plates were then measured for activity by determining the inhibition zone diameter under the previously placed 15λ aliquot.

Bacillus sp. 633 = assay: Inhibition zone, agar plate; type: cell-based; conditions: 15λ, read-out: Inhibition Zone Diameter
Procedure: as §1

[11] = tested on: Peptostreptococcus anaerobius 3282; assay: Anaerobic agar dilution, Wilkens-Chalgren agar; type: cell-based; conditions: Peptostreptococcus anaerobius, 3282, 48 h
[12] = tested on: Vibrio percolans 1272 (8461); assay: Inhibition zone, agar plate; type: cell-based; conditions: Comamonas terrigena, 15λ, read-out: Inhibition Zone Diameter
[13] = tested on: Salmonella gallinarum 1287; assay: Inhibition zone, agar plate; type: cell-based; conditions: Salmonella enterica, 15λ, read-out: Inhibition Zone Diameter
Sarcina lutea 1101 (934) = assay: Inhibition zone, agar plate; type: cell-based; conditions: Micrococcus luteus, 15λ, read-out: Inhibition Zone Diameter
C. perfringens 2237 = assay: microbe, parasite or virus in culture; type: cell-based; conditions: Clostridium perfringens, 2237, 48 h
[14] = tested on: C. difficile Clind^r 4273; assay: Anaerobic agar dilution, Wilkens-Chalgren agar; type: cell-based; conditions: Clostridioides difficile, 48 h
[15] = tested on: B. distasonis Pen^r, Fox^r 3445; assay: Anaerobic agar dilution, Wilkens-Chalgren agar; type: cell-based; conditions: Parabacteroides distasonis, 48 h
E. coli 2891 [16] = assay: Agar dilution, trypticase soy agar; conditions: Escherichia coli, 2891, 20 h
Prot. morganii Sm^r 2833 = assay: Agar dilution, trypticase soy agar; conditions: Morganella morganii, 20 h
B. ovatus Pen^r 3248 = assay: Anaerobic agar dilution, Wilkens-Chalgren agar; type: cell-based; conditions: Bacteroides ovatus, 48 h
[17] = tested on: B. thetalotamicron Clind^r 4362; assay: Anaerobic agar dilution, Wilkens-Chalgren agar; type: cell-based; conditions: 48 h
[18] = tested on: Bacillus subtilis 964 (6633); assay: Inhibition zone, agar plate; type: cell-based; conditions: 15λ, read-out: Inhibition Zone Diameter
E. coli 2891 [19] = assay: Agar dilution, antagonist-free medium; conditions: Escherichia coli, 2891, 20 h
[20] = tested on: Proteus vulgaris 2112 (episome); assay: Inhibition zone, agar plate; type: cell-based; conditions: read-out: Inhibition Zone Diameter
[21] = tested on: S. aureus Gm^r Meth^r 4310; assay: Agar dilution, trypticase soy agar; conditions: Staphylococcus aureus, 20 h

Q: What does the source list for `C[C@H](CNC(=O)[C@H]1N=C(c2cccc(O)c2O)O[C@@H]1C)C(=O)N[C@@H]1CCCN(O)C1=O` [L-654,040, 2-(2,3-dihydroxyphenyl)-4,5-dihydro-N-[3-[(1-hydroxy-2-oxo-3(R)-piperidinyl)-amino]-2(R)-methyl-3-oxopropyl]-5R-methyl-4S-oxazolecarboxamide]?
A: MIC (B. fragilis Pen^r 3214): > 128 µg/mL; MIC (C. perfringens 3511): 64 µg/mL (≈ 147 µM); MIC [1]: 64 µg/mL (≈ 147 µM); MIC (E. coli TEM 2+ 4351): > 256 µg/mL; zone of inhibition at 500 µg/mL ([2]; 0.5 mg/ml in distilled H2O): 0 mm; zone of inhibition at 2000 µg/mL ([2]; 2 mg/ml in distilled H2O): 0 mm; MIC (Ent. cloacae P99- 2647 [3]): > 256 µg/mL; MIC [4]: > 128 µg/mL; zone of inhibition at 500 µg/mL ([5]; 0.5 mg/ml in distilled H2O): 12 mm; zone of inhibition at 2000 µg/mL ([5]; 2 mg/ml in distilled H2O): 13 mm; solubility (Solubility in water; boiling water): ~10000 µg/mL (≈ 23000 µM); solubility in water (Solubility in water; water, for dosing solutions): limited solubility; MIC (C. difficile Fox^r 4380): 128 µg/mL (≈ 295 µM); zone of inhibition at 500 µg/mL ([6]; 0.5 mg/ml in distilled H2O): 0 mm; zone of inhibition at 2000 µg/mL ([6]; 2 mg/ml in distilled H2O): 0 mm; MIC [7]: > 128 µg/mL; zone of inhibition at 500 µg/mL (Aerobacter aerogenes 835; 0.5 mg/ml in distilled H2O): 0 mm; zone of inhibition at 2000 µg/mL (Aerobacter aerogenes 835; 2 mg/ml in distilled H2O): 0 mm; zone of inhibition at 500 µg/mL ([8]; 0.5 mg/ml in distilled H2O): 18 mm; zone of inhibition at 2000 µg/mL ([8]; 2 mg/ml in distilled H2O): 31 mm; zone of inhibition at 500 µg/mL (Aspergillus niger 442; 0.5 mg/ml in distilled H2O): 0 mm; zone of inhibition at 2000 µg/mL (Aspergillus niger 442; 2 mg/ml in distilled H2O): 0 mm; MIC (Ent. cloacae P99- 2647 [9]): > 128 µg/mL; zone of inhibition at 500 µg/mL [10]: 16 mm; zone of inhibition at 2000 µg/mL [10]: 24 mm; MIC (Ser. marcescens 2840): > 128 µg/mL; zone of inhibition at 500 µg/mL (Candida albicans 992; 0.5 mg/ml in distilled H2O): 16 mm; zone of inhibition at 2000 µg/mL (Candida albicans 992; 2 mg/ml in distilled H2O): 24 mm; zone of inhibition at 500 µg/mL (Bacillus sp. 633; 0.5 mg/ml in distilled H2O): 23 mm; zone of inhibition at 2000 µg/mL (Bacillus sp. 633; 2 mg/ml in distilled H2O): 28 mm; MIC [11]: > 128 µg/mL; zone of inhibition at 500 µg/mL ([12]; 0.5 mg/ml in distilled H2O): 18 mm; zone of inhibition at 2000 µg/mL ([12]; 2 mg/ml in distilled H2O): 25 mm; zone of inhibition at 500 µg/mL ([13]; 0.5 mg/ml in distilled H2O): 0 mm; zone of inhibition at 2000 µg/mL ([13]; 2 mg/ml in distilled H2O): 0 mm; zone of inhibition at 500 µg/mL (Sarcina lutea 1101 (934); 0.5 mg/ml in distilled H2O): 12 mm; zone of inhibition at 2000 µg/mL (Sarcina lutea 1101 (934); 2 mg/ml in distilled H2O): 17 mm; MIC (C. perfringens 2237): 128 µg/mL (≈ 295 µM); MIC [14]: 128 µg/mL (≈ 295 µM); MIC [15]: > 128 µg/mL; MIC (E. coli 2891 [16]): > 128 µg/mL; MIC (Prot. morganii Sm^r 2833): > 128 µg/mL; MIC (B. ovatus Pen^r 3248): > 128 µg/mL; MIC [17]: > 128 µg/mL; zone of inhibition at 500 µg/mL ([18]; 0.5 mg/ml in distilled H2O): 12 mm; zone of inhibition at 2000 µg/mL ([18]; 2 mg/ml in distilled H2O): 14 mm; MIC (E. coli 2891 [19]): > 256 µg/mL; zone of inhibition at 500 µg/mL [20]: 16 mm; zone of inhibition at 2000 µg/mL [20]: 28 mm; MIC [21]: 128 µg/mL (≈ 295 µM)
